This passage reports LC50, NOAEL and LD50 results from EPA's ToxValDB 9.5 (doi:10.2903/j.efsa.2011.2419).

Molecules are shown by their SMILES. Bounds are passed on as bounds.

The subject of one data set is Anas platyrhynchos. As to conditions: short-term; oral; feed; mortality.
The subject of a further data set is Rattus norvegicus. The following applies: inhalation.
The next data set has as its system Colinus virginianus. The following applies: acute, oral, mortality; for LC50: diet.
The mark [1] stands for this setting: reproduction developmental, mortality.

A word on the NOAEL: it is the highest tested level that showed no adverse finding. Regarding `[Ca+2].[Ca+2].[Ca+2].[P-3].[P-3]` [Tricalcium diphosphide], the LC50 in the data set on Anas platyrhynchos turned out to be 2040 mg/kg; with Colinus virginianus it was 330 mg/kg. Further, the NOAEL in the data set on Rattus norvegicus (chronic, duration: 2 years) was 1.1 mg/kg-day; in the data set with Rattus norvegicus (setting [1]) it was 1.9 mg/kg-day; in the data set with Rattus norvegicus (subchronic, duration: 90 days), 1.1 mg/kg-day. In the data set on Colinus virginianus, this compound came in with an LD50 of under 24.7 mg/kg-day.

With `P` [Phosphine], the results for the LC50 with Anas platyrhynchos and with Colinus virginianus were 762 mg/kg and 124 mg/kg, respectively. For the same compound, the no-observed-adverse-effect level (NOAEL) in the data set on Rattus norvegicus (chronic, duration: 2 years) stood at 1.1 mg/kg-day; with Rattus norvegicus (setting [1]), 1.9 mg/kg-day; in the data set on Rattus norvegicus (subchronic, duration: 90 days) it was 1.1 mg/kg-day. The compound further returned an LD50 with Colinus virginianus of under 9.2 mg/kg-day.
